Test results reported in BindingDB's records for doi:10.1016/j.bioorg.2016.12.008 (Fayoum University, 2017).

How the values were obtained:
[1] = molecular target: T1, Prostaglandin G/H synthase 1 (Ovis aries, UniProt P05979); test: In Vitro Cyclooxygenase (COX) Inhibition Assay
T1 sequence (P05979 whole entry): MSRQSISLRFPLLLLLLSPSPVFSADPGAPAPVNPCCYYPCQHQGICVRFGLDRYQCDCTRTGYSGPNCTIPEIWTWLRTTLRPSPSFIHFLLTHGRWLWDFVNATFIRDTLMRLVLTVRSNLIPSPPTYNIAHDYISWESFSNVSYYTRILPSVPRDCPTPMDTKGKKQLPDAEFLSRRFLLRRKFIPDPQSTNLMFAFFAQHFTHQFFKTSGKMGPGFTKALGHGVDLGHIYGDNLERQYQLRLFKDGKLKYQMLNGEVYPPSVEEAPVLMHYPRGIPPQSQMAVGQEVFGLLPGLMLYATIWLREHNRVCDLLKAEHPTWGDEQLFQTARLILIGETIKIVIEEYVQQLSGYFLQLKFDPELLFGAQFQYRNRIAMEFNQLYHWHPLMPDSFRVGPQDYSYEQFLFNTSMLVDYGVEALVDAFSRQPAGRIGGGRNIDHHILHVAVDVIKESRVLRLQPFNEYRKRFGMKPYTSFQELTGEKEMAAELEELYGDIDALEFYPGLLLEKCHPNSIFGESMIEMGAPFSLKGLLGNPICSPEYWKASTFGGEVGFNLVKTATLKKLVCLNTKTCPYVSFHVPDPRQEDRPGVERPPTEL
Procedure: (§1) Different concentrations of either celecoxib or tested compounds were incubated with the enzymes for a period of 5 min at 25 °C. After the incubation period the colorimetric substrate and arachidonic acid were added after that the absorbance was measured at 590 nm using plate reader.

[2] = molecular target: T2, Prostaglandin G/H synthase 2 (Ovis aries, UniProt P79208); test: In Vitro Cyclooxygenase (COX) Inhibition Assay
T2 sequence (P79208 whole entry): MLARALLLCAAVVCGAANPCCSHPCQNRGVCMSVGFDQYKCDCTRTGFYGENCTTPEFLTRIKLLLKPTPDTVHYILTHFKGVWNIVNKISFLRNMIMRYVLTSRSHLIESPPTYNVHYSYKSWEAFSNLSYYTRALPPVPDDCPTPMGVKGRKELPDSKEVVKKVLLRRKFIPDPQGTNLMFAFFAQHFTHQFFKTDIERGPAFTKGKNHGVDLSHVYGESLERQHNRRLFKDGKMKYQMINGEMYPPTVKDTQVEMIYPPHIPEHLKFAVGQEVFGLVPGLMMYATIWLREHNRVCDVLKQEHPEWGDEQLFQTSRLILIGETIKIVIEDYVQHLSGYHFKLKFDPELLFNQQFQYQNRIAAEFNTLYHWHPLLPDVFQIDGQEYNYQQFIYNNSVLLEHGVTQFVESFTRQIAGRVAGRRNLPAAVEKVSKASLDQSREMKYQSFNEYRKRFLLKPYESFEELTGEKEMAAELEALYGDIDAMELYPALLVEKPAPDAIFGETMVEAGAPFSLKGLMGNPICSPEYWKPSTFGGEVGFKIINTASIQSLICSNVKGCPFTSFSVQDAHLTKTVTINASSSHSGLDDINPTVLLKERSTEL
Procedure: as §1

Compound `CS(=O)(=O)Nc1ccc(-c2cc(-c3ccc(Cl)cc3)c(C#N)c(=O)[nH]2)cc1` [4-(4-Chlorophenyl)-6-(4-methanesulfonylaminophenyl)-2-oxo-1,2-dihydropyridine-3-carbonitrile (4o)] has an IC50 [1] of 15.3 µM and an IC50 [2] of 3.4 µM.

`CS(=O)(=O)Nc1ccc(C2=NN(c3ccc(S(N)(=O)=O)cc3)C(c3ccco3)C2)cc1` (stereo not drawn) [1-(4-Aminosulfonylphenyl)-5-(2-furyl)-3-(4-methanesulfonylaminophenyl)-4,5-dihydro-1H-pyrazole (6e)] gave an IC50 [1] of 16.5 µM and an IC50 [2] of 3.5 µM.

Compound `N#Cc1c(-c2ccco2)cc(-c2ccc([N+](=O)[O-])cc2)[nH]c1=O` [4-(2-Furyl)-6-(4-nitrophenyl)-2-oxo-1,2-dihydropyridine-3-carbonitrile (4e)] has an IC50 [1] of 8.9 µM and an IC50 [2] of 1.2 µM.

`Cc1ccc(C2CC(c3ccc(NS(C)(=O)=O)cc3)=NN2c2ccc(S(N)(=O)=O)cc2)cc1` (stereo not drawn) [1-(4-Aminosulfonylphenyl)-3-(4-methanesulfonylaminophenyl)-5-(4-tolyl)-4,5-dihydro-1H-pyrazole (6b)] showed an IC50 [1] of 23.6 µM and an IC50 [2] of 7.5 µM.

In the case of `Cc1ccc(-c2cc(-c3ccc([N+](=O)[O-])cc3)[nH]c(=O)c2C#N)cc1` [6-(4-Nitrophenyl)-2-oxo-4-(p-tolyl)-1,2-dihydropyridine-3-carbonitrile (4b)], the IC50 [1] is reported as 12.9 µM and the IC50 [2] is reported as 2.9 µM.

Compound `N#Cc1c(-c2ccccc2)cc(-c2ccc([N+](=O)[O-])cc2)[nH]c1=O` [6-(4-nitrophenyl)-2-oxo-4-phenyl-1,2-dihydropyridine-3-carbonitrile (4a)] has an IC50 [1] of 12.4 µM and an IC50 [2] of 3.8 µM.

In the case of `CC(C)Cc1ccc(-c2cc(-c3ccc(Cl)cc3)c(C#N)c(=O)[nH]2)cc1` [4-(4-Chlorophenyl)-6-(4-isobutylphenyl)-2-oxo-1,2-dihydropyridine-3-carbonitrile (4i)], the IC50 [1] is reported as 14.2 µM and the IC50 [2] is reported as 5.1 µM.

Work on `CC(C)Cc1ccc(-c2cc(-c3ccccc3)c(C#N)c(=O)[nH]2)cc1` [6-(4-Isobutylphenyl)-2-oxo-4-phenyl-1,2-dihydropyridine-3-carbonitrile (4g)] yielded an IC50 [1] of 13.1 µM and an IC50 [2] of 3.4 µM.

For `N#Cc1c(-c2cccs2)cc(-c2ccc([N+](=O)[O-])cc2)[nH]c1=O` [6-(4-nitrophenyl)-2-oxo-4-(thiophen-2-yl)-1,2-dihydropyridine-3-carbonitrile (4f)], the IC50 [1] was 6.8 µM and the IC50 [2] was 0.87 µM.

`N#Cc1c(-c2ccc(F)cc2)cc(-c2ccc([N+](=O)[O-])cc2)[nH]c1=O` [4-(4-Fluorophenyl)-6-(4-nitrophenyl)-2-oxo-1,2-dihydropyridine-3-carbonitrile (4d)] gave an IC50 [1] of 13.4 µM and an IC50 [2] of 4.6 µM.

In the case of `N#Cc1c(-c2ccc(Cl)cc2)cc(-c2ccc([N+](=O)[O-])cc2)[nH]c1=O` [4-(4-chlorophenyl)-6-(4-nitrophenyl)-2-oxo-1,2-dihydropyridine-3-carbonitrile (4c)], the IC50 [1] is reported as 23.4 µM and the IC50 [2] is reported as 7.3 µM.

`CS(=O)(=O)Nc1ccc(-c2cc(-c3ccc(F)cc3)c(C#N)c(=O)[nH]2)cc1` [4-(4-Fluorophenyl)-6-(4-methanesulfonylaminophenyl)-2-oxo-1,2-dihydropyridine-3-carbonitrile (4p)] gave an IC50 [1] of 10.7 µM and an IC50 [2] of 2.5 µM.

In the case of `CS(=O)(=O)Nc1ccc(-c2cc(-c3cccs3)c(C#N)c(=O)[nH]2)cc1` [6-(4-Methanesulfonylaminophenyl)-2-oxo-4-(2-thienyl)-1,2-dihydropyridine-3-carbonitrile (4r)], the IC50 [1] is reported as 32.1 µM and the IC50 [2] is reported as 10.2 µM.

`Cc1ccc(-c2cc(-c3ccc(CC(C)C)cc3)[nH]c(=O)c2C#N)cc1` [6-(4-Isobutylphenyl)-2-oxo-4-(p-tolyl)-1,2-dihydropyridine-3-carbonitrile (4h)] gave an IC50 [1] of 11.2 µM and an IC50 [2] of 2.7 µM.

In the case of `CS(=O)(=O)Nc1ccc(-c2cc(-c3ccccc3)c(C#N)c(=O)[nH]2)cc1` [6-(4-Methanesulfonylaminophenyl)-2-oxo-4-phenyl-1,2-dihydropyridine-3-carbonitrile (4m)], the IC50 [1] is reported as 9.4 µM and the IC50 [2] is reported as 1.6 µM.

`CC(C)Cc1ccc(-c2cc(-c3ccc(F)cc3)c(C#N)c(=O)[nH]2)cc1` [4-(4-Fluorophenyl)-6-(4-isobutylphenyl)-2-oxo-1,2-dihydropyridine-3-carbonitrile (4j)] was tested, and the IC50 [1] was 6.5 µM and the IC50 [2] was 0.93 µM.

With `CS(=O)(=O)Nc1ccc(C2=NN(c3ccc(S(N)(=O)=O)cc3)C(c3ccccc3)C2)cc1` (stereo not drawn) [1-(4-Aminosulfonylphenyl)-3-(4-methanesulfonylaminophenyl)-5-phenyl-4,5-dihydro-1H-pyrazole (6a)] the IC50 [1] was 7.6 µM and the IC50 [2] was 1.3 µM.

For `CS(=O)(=O)Nc1ccc(C2=NN(c3ccc(S(N)(=O)=O)cc3)C(c3cccs3)C2)cc1` (stereo not drawn) [1-(4-Aminosulfonylphenyl)-5-(2-thienyl)-3-(4-methanesulfonylaminophenyl)-4,5-dihydro-1H-pyrazole (6f)], the IC50 [1] was 25.1 µM and the IC50 [2] was 7.8 µM.

With `CC(C)Cc1ccc(-c2cc(-c3ccco3)c(C#N)c(=O)[nH]2)cc1` [4-(2-Furyl)-6-(4-isobutylphenyl)-2-oxo-1,2-dihydropyridine-3-carbonitrile (4k)] the IC50 [1] was 7.3 µM and the IC50 [2] was 1.11 µM.

`CS(=O)(=O)Nc1ccc(-c2cc(-c3ccco3)c(C#N)c(=O)[nH]2)cc1` [4-(2-Furyl)-6-(4-methanesulfonylaminophenyl)-2-oxo-1,2-dihydropyridine-3-carbonitrile (4q)] showed an IC50 [1] of 9.8 µM and an IC50 [2] of 2.9 µM.

`CS(=O)(=O)Nc1ccc(C2=NN(c3ccc(S(N)(=O)=O)cc3)C(c3ccc(Cl)cc3)C2)cc1` (stereo not drawn) [1-(4-Aminosulfonylphenyl)-5-(4-chlorophenyl)-3-(4-methanesulfonylaminophenyl)-4,5-dihydro-1H-pyrazole (6c)] showed an IC50 [1] of 9.7 µM and an IC50 [2] of 2.4 µM.

`Cc1ccc(-c2cc(-c3ccc(NS(C)(=O)=O)cc3)[nH]c(=O)c2C#N)cc1` [6-(4-Methanesulfonylaminophenyl)-2-oxo-4-(4-tolyl)-1,2-dihydropyridine-3-carbonitrile (4n)] was tested, and the IC50 [1] was 8.6 µM and the IC50 [2] was 1.3 µM.

For `CS(=O)(=O)Nc1ccc(C2=NN(c3ccc(S(N)(=O)=O)cc3)C(c3ccc(F)cc3)C2)cc1` (stereo not drawn) [1-(4-Aminosulfonylphenyl)-5-(4-fluorophenyl)-3-(4-methanesulfonylaminophenyl)-4,5-dihydro-1H-pyrazole (6d)], the IC50 [1] was 18.7 µM and the IC50 [2] was 3.9 µM.

`CC(C)Cc1ccc(-c2cc(-c3cccs3)c(C#N)c(=O)[nH]2)cc1` [6-(4-Isobutylphenyl)-2-oxo-4-(2-thienyl)-1,2-dihydropyridine-3-carbonitrile (4l)] gave an IC50 [1] of 12.7 µM and an IC50 [2] of 3.7 µM.
